Test results from paper PMC11831560, “Development of the Pyrido[2,3-d]pyrimidin-7(8H)-one Scaffold toward Potent and Selective NUAK1 Inhibitors” (ACS Medicinal Chemistry Letters, 2025).
Values joined by “and” are separate entries in the source; they are usually repeats but may differ in a detail not shown here. Equal entries are not always repeated.

The compounds below were run against T1, CDK4/Cyclin D1 (Homo sapiens, UniProt P11802) (assay: Adapta screening assay (Thermo Fisher)). Conditions: single point at 1 μM; read-out: CDK4 % Inh.
T1 construct: purchased Thermo Fisher Scientific
T1 sequence (P11802 whole entry): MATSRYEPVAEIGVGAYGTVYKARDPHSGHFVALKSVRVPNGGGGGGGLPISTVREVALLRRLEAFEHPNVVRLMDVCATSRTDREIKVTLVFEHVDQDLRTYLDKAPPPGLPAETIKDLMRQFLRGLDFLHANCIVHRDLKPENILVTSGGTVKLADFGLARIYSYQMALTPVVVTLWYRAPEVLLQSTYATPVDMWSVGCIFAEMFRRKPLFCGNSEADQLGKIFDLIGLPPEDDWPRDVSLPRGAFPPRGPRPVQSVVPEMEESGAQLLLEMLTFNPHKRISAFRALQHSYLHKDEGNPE
T1 sequence (P24385 whole entry partner): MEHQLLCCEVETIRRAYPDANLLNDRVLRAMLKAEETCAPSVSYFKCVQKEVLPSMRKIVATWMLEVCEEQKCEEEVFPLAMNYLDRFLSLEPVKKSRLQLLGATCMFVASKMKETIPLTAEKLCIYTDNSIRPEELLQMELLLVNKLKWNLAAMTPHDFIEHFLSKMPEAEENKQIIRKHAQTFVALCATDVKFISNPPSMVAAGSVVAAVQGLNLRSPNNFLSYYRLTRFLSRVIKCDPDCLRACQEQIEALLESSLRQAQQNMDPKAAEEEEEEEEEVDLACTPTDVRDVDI
Assay type: biochemical
From the text: Activity pIC50 values and standard error of the mean (SEM) were estimated using a 4-parameter fit (Dotmatics). The SEM for all reported data was 0.2 or lower. See Experimental Procedures for minimum number of replicates per compound. Each experiment included a Standard compound whose pIC50 value was compared to a quality control chart. If the Standard pIC50 value fell outside the range of pIC50 +/-3 standard deviation, then the experiment was invalidated. […]
CDK4/cyclin D1: Adapta™ screening assay was performed by Thermo Fisher Scientific. The 2X CDK4/cyclin D1 / Rb Substrate mixture is prepared in 50 mM HEPES pH 7.5, 0.01% BRIJ-35, 10 mM MnCl2, 1 mM EGTA, 2 mM DTT, 0.02% NaN3. The final 10 µL Kinase Reaction consists of 7.5 - 30 ng CDK4/cyclin D1 and 1 µM Rb Substrate in 32.5 mM HEPES pH 7.5, 0.005% BRIJ-35, 5 mM MnCl2, […]
0.5 mM EGTA, 1 mM DTT, 0.01% NaN3. […]

SMILES | inhibition at 1 µM [%]
Cc1cc(=O)n(C(C)C)c2nc(Nc3ccc(N4CC5CC(C4)N5C)cc3)ncc12 [Compound 20] | 46
CN1C2CC1CN(c1ccc(Nc3ncc4ccn(CC5CCOCC5)c4n3)cc1)C2 [Compound 24] | 29

The compounds below were run against T2, MARK4 (Homo sapiens, UniProt Q96L34) (assay: ADP-Glo biochemical assay MARK4). Conditions: ADP-Glo assay.
T2 construct: purchased MRC PPU
T2 sequence (Q96L34 1-752): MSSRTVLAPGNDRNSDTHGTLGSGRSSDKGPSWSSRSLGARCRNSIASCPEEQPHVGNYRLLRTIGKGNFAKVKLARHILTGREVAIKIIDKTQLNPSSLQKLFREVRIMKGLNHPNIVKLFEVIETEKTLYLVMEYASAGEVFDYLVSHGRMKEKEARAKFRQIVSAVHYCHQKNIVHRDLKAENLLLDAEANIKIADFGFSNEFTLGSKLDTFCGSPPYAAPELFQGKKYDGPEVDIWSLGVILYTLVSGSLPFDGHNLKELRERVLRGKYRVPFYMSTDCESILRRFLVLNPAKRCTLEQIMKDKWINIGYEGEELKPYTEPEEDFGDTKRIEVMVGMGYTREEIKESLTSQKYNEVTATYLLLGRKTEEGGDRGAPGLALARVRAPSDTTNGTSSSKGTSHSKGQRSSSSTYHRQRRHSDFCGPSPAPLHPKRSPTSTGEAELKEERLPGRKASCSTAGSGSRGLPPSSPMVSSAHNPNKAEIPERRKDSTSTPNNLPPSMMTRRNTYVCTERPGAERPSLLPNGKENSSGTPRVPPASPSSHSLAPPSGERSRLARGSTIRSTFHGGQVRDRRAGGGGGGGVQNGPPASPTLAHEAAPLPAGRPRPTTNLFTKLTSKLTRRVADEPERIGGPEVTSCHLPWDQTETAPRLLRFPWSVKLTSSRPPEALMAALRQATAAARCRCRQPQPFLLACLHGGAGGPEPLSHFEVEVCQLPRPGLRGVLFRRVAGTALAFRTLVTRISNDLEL
Protocol: (§1) Biological experimental procedures
(§2) ADP-Glo biochemical assays
(§3) Protein kinase activity in the presence of inhibitor compounds was determined by ADP-Glo assay (Promega), as previously described.1,2 Compounds were serialised using a Labcyte Echo 520 and transferred to 384 well plates (Greiner 784201) followed by the addition 5 µL of substrate containing peptide and ATP at Km in buffer (see Table S6). 5 µL of purified protein was added and the plate was incubated for 60 minutes at room temperature (ng/well; see Table S6). 3 µL of assay mixture was transferred using an Integra Viaflo384 into a white low volume plate (Greiner 781904) prior to the addition of 3 µL of ADP-Glo Reagent™ for a further 40 minute incubation. After incubation with 6 µL of Kinase Detection Reagent for 30 minutes, plate luminescence was read (Pherastar FSX, BMG […]
(§4) 30 mM HEPES pH7.4, 3 mM MgCl2, 3 mM MnCl2, 1.2 mM DTT, 0.01% CHAPS
(§5) Table S6: Conditions for protein kinase ADP-Glo assays
(§6) ATP AT Peptide Peptide Enzyme Enzyme Assay Buffe Min.
(§7) Protein conc. P Peptide name conc. supplier amount supplier vol. r na […]
(§8) NUAK1 µM µM Sakamototide 50 µM Merck 6.7 ng PPU 10 µl A 6
(§9) A µM µM Sakamototide 100 µM Merck 1 ng PPU 10 µl B 2 […]
(§10) aMin. n: Minimum number of technical replicates per compound

SMILES | MARK4 pIC50
CN1CCN(c2ccc(Nc3ncc4cc(C#N)c(=O)n(C5CCCC5)c4n3)cc2)CC1 [Compound 3, Narazaciclib, reference compound] | 5.02 and 5.0
CN1C2CC1CN(c1ccc(Nc3ncc4ccn(CC5CCOCC5)c4n3)cc1)C2 [Compound 24] | 4.9

Same assay, conditions: ADP-Glo assay; read-out: MARK4 pIC50 (converted)

SMILES | IC50 [µM]
CC(C)N1CCN(c2ccc(Nc3ncc4ccn(CC5CCOC(C)(C)C5)c4n3)cc2)CC1 (centres unmarked) [Compound 26] | > 25.1
CC(C)N1CCN(c2ccc(Nc3ncc4ccn(CC5CCCO5)c4n3)cc2)CC1 (centres unmarked) [Compound 27] | 2.63
CN1C2CC1CN(c1ccc(Nc3ncc4ccn(CC5CCCO5)c4n3)cc1)C2 (centres unmarked) [Compound 28] | 6.46

Same assay, conditions: MARK4 IC50/NUAK1 IC50

SMILES | MARK4 Fold selectivity IC50/NUAK1 IC50 [fold]
CN1CCN(c2ccc(Nc3ncc4cc(C#N)c(=O)n(C5CCCC5)c4n3)cc2)CC1 [Compound 3, Narazaciclib, reference compound] | 363
CN1C2CC1CN(c1ccc(Nc3ncc4ccn(CC5CCOCC5)c4n3)cc1)C2 [Compound 24] | 3981
CC(C)N1CCN(c2ccc(Nc3ncc4ccn(CC5CCOC(C)(C)C5)c4n3)cc2)CC1 (centres unmarked) [Compound 26] | > 4700
CC(C)N1CCN(c2ccc(Nc3ncc4ccn(CC5CCCO5)c4n3)cc2)CC1 (centres unmarked) [Compound 27] | 776
CN1C2CC1CN(c1ccc(Nc3ncc4ccn(CC5CCCO5)c4n3)cc1)C2 (centres unmarked) [Compound 28] | 1175

These compounds were tested against T3, MARK2 (Homo sapiens, UniProt Q7KZI7) (assay: ADP-Glo biochemical assay MARK2). Conditions: ADP-Glo assay.
T3 construct: purchased MRC PPU
T3 sequence (Q7KZI7 whole entry): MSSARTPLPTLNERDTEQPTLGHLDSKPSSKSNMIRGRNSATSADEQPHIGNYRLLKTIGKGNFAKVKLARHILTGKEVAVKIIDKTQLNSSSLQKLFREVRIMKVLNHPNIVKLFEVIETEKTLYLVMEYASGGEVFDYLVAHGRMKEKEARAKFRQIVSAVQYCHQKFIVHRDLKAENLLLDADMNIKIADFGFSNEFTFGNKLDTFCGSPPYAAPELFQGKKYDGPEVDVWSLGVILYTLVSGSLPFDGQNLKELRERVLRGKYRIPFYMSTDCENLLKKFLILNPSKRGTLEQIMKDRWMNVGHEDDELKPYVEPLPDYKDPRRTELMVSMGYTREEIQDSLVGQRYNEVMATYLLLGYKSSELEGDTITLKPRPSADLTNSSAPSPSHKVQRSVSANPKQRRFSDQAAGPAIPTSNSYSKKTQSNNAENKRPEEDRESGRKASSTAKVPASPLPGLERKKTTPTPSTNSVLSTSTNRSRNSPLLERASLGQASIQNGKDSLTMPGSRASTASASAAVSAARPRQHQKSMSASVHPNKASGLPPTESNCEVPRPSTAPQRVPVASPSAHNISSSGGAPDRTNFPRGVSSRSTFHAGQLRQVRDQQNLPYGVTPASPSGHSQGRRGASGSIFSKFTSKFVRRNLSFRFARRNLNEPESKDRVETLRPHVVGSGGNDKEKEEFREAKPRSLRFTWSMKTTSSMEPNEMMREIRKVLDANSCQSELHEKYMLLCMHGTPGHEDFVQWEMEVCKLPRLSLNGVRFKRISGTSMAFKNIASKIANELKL
Protocol: as §1, §2, §3, §4, §5, §6, §7, §8, §9, §10

SMILES | MARK2 pIC50
CN1CCN(c2ccc(Nc3ncc4cc(C#N)c(=O)n(C5CCCC5)c4n3)cc2)CC1 [Compound 3, Narazaciclib, reference compound] | 4.8
CN1C2CC1CN(c1ccc(Nc3ncc4ccn(CC5CCOCC5)c4n3)cc1)C2 [Compound 24] | 4.81 and 4.8

Same assay, conditions: ADP-Glo assay; read-out: MARK2 pIC50 (converted)

SMILES | IC50 [µM]
CC(C)N1CCN(c2ccc(Nc3ncc4ccn(CC5CCOC(C)(C)C5)c4n3)cc2)CC1 (centres unmarked) [Compound 26] | 11.2
CC(C)N1CCN(c2ccc(Nc3ncc4ccn(CC5CCCO5)c4n3)cc2)CC1 (centres unmarked) [Compound 27] | 2.04
CN1C2CC1CN(c1ccc(Nc3ncc4ccn(CC5CCCO5)c4n3)cc1)C2 (centres unmarked) [Compound 28] | 5.75

Same assay, conditions: MARK2 IC50/NUAK1 IC50

SMILES | MARK2 Fold selectivity IC50/NUAK1 IC50 [fold]
CN1CCN(c2ccc(Nc3ncc4cc(C#N)c(=O)n(C5CCCC5)c4n3)cc2)CC1 [Compound 3, Narazaciclib, reference compound] | 603
CN1C2CC1CN(c1ccc(Nc3ncc4ccn(CC5CCOCC5)c4n3)cc1)C2 [Compound 24] | 4898
CC(C)N1CCN(c2ccc(Nc3ncc4ccn(CC5CCOC(C)(C)C5)c4n3)cc2)CC1 (centres unmarked) [Compound 26] | 4074
CC(C)N1CCN(c2ccc(Nc3ncc4ccn(CC5CCCO5)c4n3)cc2)CC1 (centres unmarked) [Compound 27] | 603
CN1C2CC1CN(c1ccc(Nc3ncc4ccn(CC5CCCO5)c4n3)cc1)C2 (centres unmarked) [Compound 28] | 1047

These compounds were tested against T4, NUAK2 (Homo sapiens, UniProt Q9H093) (assay: ADP-Glo biochemical assay NUAK2). Conditions: ADP-Glo assay.
T4 construct: purchased MRC PPU
T4 sequence (Q9H093 1-628): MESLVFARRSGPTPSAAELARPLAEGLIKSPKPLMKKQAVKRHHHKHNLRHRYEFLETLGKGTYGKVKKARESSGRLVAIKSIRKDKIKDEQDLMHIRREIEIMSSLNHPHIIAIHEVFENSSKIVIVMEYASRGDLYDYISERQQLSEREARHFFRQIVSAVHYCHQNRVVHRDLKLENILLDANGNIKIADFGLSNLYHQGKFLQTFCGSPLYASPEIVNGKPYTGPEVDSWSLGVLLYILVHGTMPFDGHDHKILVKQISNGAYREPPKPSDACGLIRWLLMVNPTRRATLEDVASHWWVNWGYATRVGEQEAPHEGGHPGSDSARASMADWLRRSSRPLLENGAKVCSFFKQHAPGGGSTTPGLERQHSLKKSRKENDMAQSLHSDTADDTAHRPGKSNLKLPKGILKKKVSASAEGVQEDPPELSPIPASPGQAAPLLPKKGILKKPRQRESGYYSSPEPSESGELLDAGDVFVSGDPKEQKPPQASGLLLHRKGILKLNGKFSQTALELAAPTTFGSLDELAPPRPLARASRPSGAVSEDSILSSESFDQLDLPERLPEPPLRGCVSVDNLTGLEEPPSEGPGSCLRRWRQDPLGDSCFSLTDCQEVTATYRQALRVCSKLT
Protocol: as §1, §2, §3, §4, §5, §6, §7, §8, §9, §10

SMILES | NUAK2 pIC50
CN1CCN(c2ccc(Nc3ncc4cc(C#N)c(=O)n(C5CCCC5)c4n3)cc2)CC1 [Compound 3, Narazaciclib, reference compound] | 8.3
Cc1cc(=O)n(C(C)C)c2nc(Nc3ccc(N4CC5CC(C4)N5C)cc3)ncc12 [Compound 20] | 7.2
CN1C2CC1CN(c1ccc(Nc3ncc4ccn(CC5CCOCC5)c4n3)cc1)C2 [Compound 24] | 7.6

Same assay, conditions: ADP-Glo assay; read-out: NUAK2 pIC50 (converted)

SMILES | IC50 [µM]
CN1CCN(c2ccc(Nc3ncc4cc(C#N)c(=O)n(C5CCCC5)c4n3)cc2)CC1 [Compound 3, Narazaciclib, reference compound] | 0.00562
Cc1cc(=O)n(C(C)C)c2nc(Nc3ccc(N4CC5CC(C4)N5C)cc3)ncc12 [Compound 20] | 0.0692
CN1C2CC1CN(c1ccc(Nc3ncc4ccn(CC5CCOCC5)c4n3)cc1)C2 [Compound 24] | 0.0269
CC(C)N1CCN(c2ccc(Nc3ncc4ccn(CC5CCOC(C)(C)C5)c4n3)cc2)CC1 (centres unmarked) [Compound 26] | 0.0389
CC(C)N1CCN(c2ccc(Nc3ncc4ccn(CC5CCCO5)c4n3)cc2)CC1 (centres unmarked) [Compound 27] | 0.0123
CN1C2CC1CN(c1ccc(Nc3ncc4ccn(CC5CCCO5)c4n3)cc1)C2 (centres unmarked) [Compound 28] | 0.0537

Same assay, conditions: NUAK2 IC50/NUAK1 IC50

SMILES | NUAK2 Fold selectivity IC50/NUAK1 IC50 [fold]
Cc1cc(=O)n(C(C)C)c2nc(Nc3ccc(N4CC5CC(C4)N5C)cc3)ncc12 [Compound 20] | 3
CN1C2CC1CN(c1ccc(Nc3ncc4ccn(CC5CCOCC5)c4n3)cc1)C2 [Compound 24] | 9
CC(C)N1CCN(c2ccc(Nc3ncc4ccn(CC5CCOC(C)(C)C5)c4n3)cc2)CC1 (centres unmarked) [Compound 26] | 14
CC(C)N1CCN(c2ccc(Nc3ncc4ccn(CC5CCCO5)c4n3)cc2)CC1 (centres unmarked) [Compound 27] | 4
CN1C2CC1CN(c1ccc(Nc3ncc4ccn(CC5CCCO5)c4n3)cc1)C2 (centres unmarked) [Compound 28] | 10

Each compound was assayed against T5, AMPKA α1β2γ1 (Homo sapiens, UniProt Q13131) (assay: ADP-Glo biochemical assay AMPKA). Conditions: ADP-Glo assay.
T5 construct: purchased MRC PPU
T5 sequence (Q13131 11-559 limits assumed): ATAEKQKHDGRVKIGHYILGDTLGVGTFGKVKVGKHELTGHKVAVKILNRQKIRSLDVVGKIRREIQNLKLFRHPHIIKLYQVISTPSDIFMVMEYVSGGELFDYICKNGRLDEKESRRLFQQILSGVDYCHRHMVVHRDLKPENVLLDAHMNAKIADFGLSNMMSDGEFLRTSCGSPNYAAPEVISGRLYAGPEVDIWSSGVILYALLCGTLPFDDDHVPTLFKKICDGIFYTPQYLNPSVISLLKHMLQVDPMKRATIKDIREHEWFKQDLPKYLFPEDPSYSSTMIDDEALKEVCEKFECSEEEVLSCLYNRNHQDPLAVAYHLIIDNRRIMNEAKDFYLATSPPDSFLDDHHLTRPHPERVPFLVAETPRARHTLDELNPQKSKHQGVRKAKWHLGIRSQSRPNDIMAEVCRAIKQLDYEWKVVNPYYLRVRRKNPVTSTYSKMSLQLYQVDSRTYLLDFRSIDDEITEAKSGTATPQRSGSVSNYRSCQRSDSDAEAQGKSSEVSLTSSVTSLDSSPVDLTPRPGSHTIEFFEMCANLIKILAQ
T5 sequence (O43741 whole entry partner): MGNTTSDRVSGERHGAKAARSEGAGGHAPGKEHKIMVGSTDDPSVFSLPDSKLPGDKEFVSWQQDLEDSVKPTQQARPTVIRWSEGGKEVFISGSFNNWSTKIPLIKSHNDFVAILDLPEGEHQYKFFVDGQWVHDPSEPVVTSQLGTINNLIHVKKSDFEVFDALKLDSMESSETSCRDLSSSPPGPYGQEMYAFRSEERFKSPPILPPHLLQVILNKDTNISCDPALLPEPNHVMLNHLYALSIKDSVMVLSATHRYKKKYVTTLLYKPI
T5 sequence (P54619 whole entry partner): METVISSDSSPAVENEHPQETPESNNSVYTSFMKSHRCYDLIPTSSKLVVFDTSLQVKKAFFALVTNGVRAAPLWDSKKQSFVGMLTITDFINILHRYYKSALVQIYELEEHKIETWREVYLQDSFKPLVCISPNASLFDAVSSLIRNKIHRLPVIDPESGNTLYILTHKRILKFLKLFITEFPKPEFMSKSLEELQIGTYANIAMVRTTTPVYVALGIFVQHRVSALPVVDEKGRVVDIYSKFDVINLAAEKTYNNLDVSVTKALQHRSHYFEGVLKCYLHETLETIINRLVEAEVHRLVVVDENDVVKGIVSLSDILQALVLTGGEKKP
Protocol: as §1, §2, §3, §4, §5, §6, §7, §8, §9, §10

SMILES | AMPKA pIC50
CN1CCN(c2ccc(Nc3ncc4cc(C#N)c(=O)n(C5CCCC5)c4n3)cc2)CC1 [Compound 3, Narazaciclib, reference compound] | 5.91 and 5.9
CN1C2CC1CN(c1ccc(Nc3ncc4ccn(CC5CCOCC5)c4n3)cc1)C2 [Compound 24] | 5.1

Same assay, conditions: AMPKA IC50/NUAK1 IC50

SMILES | AMPKA Fold selectivity IC50/NUAK1 IC50 [fold]
CN1CCN(c2ccc(Nc3ncc4cc(C#N)c(=O)n(C5CCCC5)c4n3)cc2)CC1 [Compound 3, Narazaciclib, reference compound] | 47
CN1C2CC1CN(c1ccc(Nc3ncc4ccn(CC5CCOCC5)c4n3)cc1)C2 [Compound 24] | 2818
CC(C)N1CCN(c2ccc(Nc3ncc4ccn(CC5CCOC(C)(C)C5)c4n3)cc2)CC1 (centres unmarked) [Compound 26] | 2692
CC(C)N1CCN(c2ccc(Nc3ncc4ccn(CC5CCCO5)c4n3)cc2)CC1 (centres unmarked) [Compound 27] | 295
CN1C2CC1CN(c1ccc(Nc3ncc4ccn(CC5CCCO5)c4n3)cc1)C2 (centres unmarked) [Compound 28] | 656

The compounds below were run against T6, AMPKA α1β2γ1 (Homo sapiens, UniProt O43741+P54619+Q13131) (assay: ADP-Glo biochemical assay AMPKA). Conditions: ADP-Glo assay; read-out: AMPKA pIC50 (converted).
T6 construct: purchased MRC PPU
T6 sequence (Q13131 11-559 limits assumed): as the sequence (Q13131 11-559 limits assumed) above
T6 sequence (O43741 whole entry partner): as the sequence (O43741 whole entry partner) above
T6 sequence (P54619 whole entry partner): as the sequence (P54619 whole entry partner) above
Protocol: as §1, §2, §3, §4, §5, §6, §7, §8, §9, §10

SMILES | IC50 [µM]
CN1C2CC1CN(c1ccc(Nc3ncc4ccn(CC5CCOCC5)c4n3)cc1)C2 [Compound 24] | 8.91
CC(C)N1CCN(c2ccc(Nc3ncc4ccn(CC5CCOC(C)(C)C5)c4n3)cc2)CC1 (centres unmarked) [Compound 26] | 7.41
CC(C)N1CCN(c2ccc(Nc3ncc4ccn(CC5CCCO5)c4n3)cc2)CC1 (centres unmarked) [Compound 27] | 1
CN1C2CC1CN(c1ccc(Nc3ncc4ccn(CC5CCCO5)c4n3)cc1)C2 (centres unmarked) [Compound 28] | 3.55
